Results: US7531622B2, “Synthesis and characterization of novel systems for guidance and vectorization of molecules of therapeutic interest towards target cells” (Centre National de la Recherche Scientifique- CNRS, priority 2002, dated 2009)
Non-standard residues stand in square brackets, D forms with d.

Test system: HEK293 cells that overexpress integrin β3
Test: Internalization of fluorescein-labeled peptides, confocal microscopy with early endosome immunolabeling
Type: cell-based
Conditions: 37° C., 15 to 30 minutes
Procedure: 3) Active internalization of drugs or vectorized products: The same cells, placed in contact at 37° C. or 4° C. for 15 to 30 minutes with peptides previously labeled with fluorescein, are observed by confocal microscopy after immunolabeling of the early endosome vesicles (anti-Early Endosome 1A labeling, visualized in red).
If incubation of the peptides is performed at 4° C., only the extracellular label is observed with the peptide obtained according to the invention, confirming that internalization takes place by way of an active process.

Substance: cyclo(RGDfK) (cyclo(RGD[dF]K)) [cRGD]
- visualization / detection of the peptide on and in cells by fluorescence: not detectable by immunofluorescence
- internalization by endocytosis (co-localization with EE1A label) (fluorescein-labeled peptide): not triggered
